Test results as given in article PMC5923171, “Novel Zinc-Attenuating Compounds as Potent Broad-Spectrum Antifungal Agents with In Vitro and In Vivo Efficacy” (Antimicrobial Agents and Chemotherapy, 2018).

What was measured:
A. fumigatus [1] = conditions: combination with amphotericin B lipid complex (ABLC), compared with either agent alone; cited from earlier work
[2] = Potentiometric titration, ligand-copper complex formation; type: binding; conditions: for copper binding (in words): potentiometric titration with CuSO4
Description: The Zn^2+-binding properties of ZAC307 and ZAC989 were further evaluated using a potentiometric assay, where pH is measured as a function of base (NaOH) added to the compound in either the absence or presence of metal. […] To determine the deprotonation constant, a solution of 1 mM ZAC307 or ZAC989 was titrated with 0.3 M NaOH at constant ionic strength (Fig. 2A and B). In a second run, the same titration was performed in the presence of 0.5 eq of Zn^2+ for ZAC307 and ZAC989. A shift in the pH curve in the presence of the metal (ZAC307, 0.5 eq of Zn^2+ [Fig. 2A]) compared to the absence of the metal (ZAC307 [Fig. 2A]) indicates binding of Zn^2+ to the compound. The measured pH data were analyzed with the Hyperquad program suite, taking into account all relevant equilibrium constants, including also the constants for metal hydroxylation. The analysis provides the pKa values and metal complex stability constants, as well as ligand-metal complex speciation calculation, indicating how many ZAC molecules are involved in coordinating the Zn^2+ ion at different pH values. […] ZAC989 bound copper with the formation constants log β1, log β2, and log β3 of 7.83, 13.37, and 20.62, respectively. The most dominant ZAC989-copper stoichiometry was a 3:1 stoichiometry (Fig. 2E).
Potentiometric measurements were carried out in DMSO-water (70:30, vol/vol) at 25°C as described previously ([22]). Titrations were performed with a pH meter (Denver Instruments) utilizing a glass electrode with AgCl reference filled with 3.0 M KCl. The electrode was equilibrated in DMSO-water (70:30, vol/vol) for at least 1 h before use. All experiments were performed at a constant ionic strength (0.1 M NaClO4). Three milliliters of a solution containing 1 mM compound was titrated with 0.3 M NaOH by manual additions in 1- to 5-μl increments with magnetic stirring. The metal-ligand binding constants were obtained from titrations of the metal complex solutions prepared in a 1:2 metal-to-ligand ratio. The titration data were refined by the nonlinear least-squares refinement program Hyperquad2013 ([37]) to determine the deprotonation and stability constants.

[3] = test system: wild-type A. fumigatus strain (AF14); experiment: Growth capacity in sRPMI zinc-limiting medium, 24-well plates; type: cell-based, Aspergillus fumigatus; conditions: 75 μM compound, 44 h, 37°C
Description: The ZACs inhibited these molds and mucorales isolates in a range from 0.4 μg/ml to 5.4 μg/ml (Table 3). To assess the capacity of the ZACs to inhibit A. fumigatus growth in the presence of zinc, 1-ml aliquots of sRPMI zinc-limiting medium (RPMI 1640 medium [R8755; Sigma] supplemented with 10 μM FeSO4·7H2O, 1 μM CuSO4·5H2O, and 1 μM MnCl2·H2O) or this medium supplemented with 2, 5, or 50 μM zinc were inoculated with 10^5 conidia of a wild-type A. fumigatus strain (AF14), dispensed in 24-well culture plates, and incubated in the presence of either ZAC307 or ZAC989 at a final concentration 21 μg/ml or 27 μg/ml (equivalent to 75 μM), respectively (Fig. 5A).
Growth capacity experiments with A. fumigatus strains AF14, AF54, AF48, AF732, and AF731 were performed in 24-well flat-bottomed tissue culture plates (35-3047; Falcon). A stock solution of 10 mM TPEN (P4413; Sigma) was prepared in pure ethanol. For these experiments, 5 mM stock solutions of ZAC307 and ZAC989 were prepared by dissolving each compound in 80% (vol/vol) ethanol. A 0.5 M stock solution of Na2EDTA·2H2O (1.08421.1000; Merck) was prepared in sterile water. […] To quantitate mycelial growth, each plate was scanned in an Agfa SnapScan 1236s scanner, and the intensity of the wells was quantified using the open-source image processing program Image J2. The data were represented and analyzed with Prism software 7.0.

[4] = test system: A. fumigatus AF54 (ΔzrfC); experiment: as above; type: cell-based, Aspergillus fumigatus; conditions: average, either with or without simultaneous exposure to ZAC307 or ZAC989
Description: (§1) Growth capacity experiments with A. fumigatus strains AF14, AF54, AF48, AF732, and AF731 were performed in 24-well flat-bottomed tissue culture plates (35-3047; Falcon). A stock solution of 10 mM TPEN (P4413; Sigma) was prepared in pure ethanol. For these experiments, 5 mM stock solutions of ZAC307 and ZAC989 were prepared by dissolving each compound in 80% (vol/vol) ethanol. A 0.5 M stock solution of Na2EDTA·2H2O (1.08421.1000; Merck) was prepared in sterile water. A 1× stock solution (10.4 g/liter) of RPMI 1640 medium (R8755; Sigma) supplemented with 10 μM FeSO4·7H2O, 1 μM CuSO4·5H2O, and 1 μM MnCl2·H2O (sRPMI) was prepared under aseptic conditions and used as standard culture medium. In each well, 1 ml of culture medium containing sRPMI medium, Tween 20, ethanol (or the specified compound dissolved in 80% ethanol), and 10^5 conidia was dispensed to achieve final concentrations of 0.7×, 0.05% (vol/vol), 1.2% (vol/vol), and 10^5 conidia/ml, respectively. Plates were incubated for 44 h at 37°C in a humid atmosphere. To quantitate mycelial growth, each plate was scanned in an Agfa SnapScan 1236s scanner, and the intensity of the wells was quantified using the open-source image processing program Image J2. The data were represented and analyzed with Prism software 7.0.

[5] = test system: A. fumigatus AF48 (ΔzrfA ΔzrfB); experiment: as above; type: cell-based, Aspergillus fumigatus; conditions: 75 μM compound, 44 h, 37°C
Description: as §1

[6] = test system: A. fumigatus AF721 (ΔzrfA ΔzrfB ΔzrfC); experiment: Growth capacity in sRPMI medium, 24-well plates; type: cell-based, Aspergillus fumigatus
A. fumigatus [7] = test system: A. fumigatus; design: method as in PMID 27401578; conditions: cited from earlier work
[8] = test system: invasive pulmonary aspergillosis; design: method as in PMID 26438863; conditions: after 7 days, compared to vehicle treatment; cited from earlier work
[9] = DMSO-water (70:30, vol/vol), CuSO4

Row | SMILES | copper binding (in words) [2] | reduction of growth capacity, 2 μM zinc plus compound compared to 50 μM zinc [3] | reduction of growth capacity at 2 μM zinc compared to 50 μM zinc [4] | reduction of growth capacity, 2 μM zinc plus compound compared to 50 μM zinc [5] | further results
1 | O=C(O)CN(CCN(CC(=O)O)CC(=O)O)CC(=O)O [EDTA] |  |  |  |  | survival times and tissue burden (A. fumigatus [1]): improved survival times and a lower tissue burden of A. fumigatus
2 | Cc1cc(O)n(-c2cc(N3CC[C@H](Oc4cnccc4C#N)C3)ncn2)n1 [ZAC989, 3-[(3S)-1-[6-(5-hydroxy-3-methyl-pyrazol-1-yl)pyrimidin-4-yl]pyrrolidin-3-yl]oxy-pyridine-4-carbonitrile] | chelates copper | 3.9 fold | 24.6 fold | 4.5 fold | formation constant log β1 (copper) [2, 9]: 7.83; formation constant log β2 (copper) [2, 9]: 13.37; formation constant log β3 (copper) [2, 9]: 20.62; growth capacity in the presence of 50 μM zinc (in words) [6]: noticeably inhibited the growth capacity of AF721
3 | CN(C)c1cc(-n2nc(-c3ccccc3)cc2O)ncn1 [ZAC307, 2-[6-(dimethylamino)pyrimidin-4-yl]-5-phenyl-pyrazol-3-ol] | binds copper | 2.9 fold | 24.6 fold | 3.9 fold | 
4 | c1ccc(CN(CCN(Cc2ccccn2)Cc2ccccn2)Cc2ccccn2)nc1 [TPEN, N,N,N’,N’-tetrakis(2-pyridylmethyl)-ethylenediamine] |  |  |  |  | survival times (A. fumigatus [7]; in combination with caspofungin, compared to either drug alone, murine models of invasive aspergillosis): significantly increased survival times; survival and fungal burden (A. fumigatus [7]; monotherapy): significant improvements in survival with concomitant reduction in fungal burden; survival [8]: significantly increase survival
